≈ marks a conversion by molar mass, not a printed value.

For series [1], the system named is Pea aphids (Acyrthosiphon pisum Harris). Nature of the series: Spray test of difluoromethoxy esters on pea aphid (Test Example 6 B). It counts as in vivo. As to the method: (§1) Insecticidal activity of α-cyano-3-phenoxybenzyl 2-(4-difluoromethoxyphenyl)isovalerates on housefly, pea aphid and corn earworm
B. Pea Aphid: Pea aphids (Acyrthosiphon pisum Harris) were tested by placing about 100 aphids on broad bean plants. The plants were sprayed with dilutions of acetone solution of test compound into water containing an emulsifier and held in containers under laboratory conditions for 18 to 20 hours at which time the living aphids in the containers were counted. The tests were conducted employing several different dosage rates of each test compound.
(§2) In each instance, the toxicity of the compound of the invention was compared to that of a standard pesticide (Parathion), its relative toxicity then being expressed in terms of the relationship between the amount of compound of the invention and the amount of the standard pesticide required to produce the same percentage (50) of mortality in the test insects or acarine. By assigning the standard pesticide an arbitrary rating of 100, the toxicities of the compounds of the invention were expressed in terms of the toxicity indexes, which compares the toxicity of the compounds of the invention with that of the standard pesticide.

Series [2] deals with Houseflies (Musca domestica Linne). Nature of the series: Spray test of difluoromethoxy esters on housefly (Test Example 6 A). It counts as in vivo. The method, then: as §1
A. Housefly: Houseflies (Musca domestica Linne) were tested by placing 50 4- to 5-day old houseflies into spray cages and spraying with 0.6 ml of a solution of test compound. After spraying, the flies were anesthetized with CO2 and transferred to a recovery cage containing a milk pad for food. The cages were held for 18-20 hours after which mortality counts were made. Both dead and moribund were counted. The tests were conducted employing several different dosage rates of each test compound.
as §2

Series [3] has as its system tobacco cut worm (Spodoptera litura). Nature of the series: Insecticidal activity of difluoromethoxy esters on tobacco cut worm, leaf dip, 24 h (Test Example 7). The class given is in vivo. The settings on record: foliar, read-out: LC50 (concentration required for 50% death). The text has this: Insecticidal activity of α-cyano-3-phenoxybenzyl 2-(4-difluoromethoxyphenyl)isovalerates on tobacco cut worm (Spodoptera litura)
Emulsifiable concentrates of difluoromethoxy ester Y and Y-rich difluoromethoxy ester formulated according to Preparation Example 12 and a 20% emulsifiable concentrate of common difluoromethoxy ester formulated in the same manner were each diluted with water to a predetermined concentration, and mixed with a spreader (Shin-Rino, a registered trademark of Nippon Noyaku Co.) of 3,000 times by weight based on the diluted liquor.
(§3) The dried leaves were placed in a plastic cup (diameter 10 cm, height 4 cm) at a rate of 2 leaves/cup, and the fourth instar larvae of tobacco cut worms were liberated therein. The dead and alive were examined after 24 hours and the values of LC50 (concentration required for 50% death) were obtained.
(§4) Experiments of three replications were carried out using 10 larvae per group.

Series [4] deals with Corn earworm larvae (Heliothis zea Boddie). The experiment in a line: Spray test of difluoromethoxy esters on corn earworm larvae (Test Example 6 C). The class given is in vivo. The method, then:
as §1
C. Corn Earworm: Corn earworm larvae (Heliothis zea Boddie) were tested by spraying broad bean plants with dilutions of acetone solution of test compound into water containing an emulsifier. Immediately after spraying, 5 larvae were transferred to each plant and held for 44-46 hours, at which time the dead and moribund larvae were counted. The tests were conducted employing several different dosage rates for each test compound.
as §2

Series [5] concerns housefly (Musca domestica). Nature of the series: Insecticidal activity of methoxy and ethoxy esters on housefly, topical application, 24 h (Test Example 8). The class given is in vivo. The settings on record: CSMA-strain female adults, 0.5 μl to ventral thorax. As to the method: Insecticidal activity of S phenylisovalerates (methoxy and ethoxy esters) on housefly (Musca domestica)
Each of S phenylisovalerate Y's and Y-rich S phenylisovalerates obtained in Examples 21 to 24 and common racemates was diluted with acetone to a pre-determined concentration, and 0.5 μl of the solution was applied to the ventral thorax of CSMA-strain housefly female adults by means of a microsyringe. The adults were then liberated in a plastic cup (diameter 11 cm) wherein a bait (3% sugar water) was placed. The dead and alive were examined after 24 hours, and the values of LD50 were obtained.

For series [6], the system named is tobacco cut worm (Spodoptera litura). Nature of the series: Insecticidal activity of fenvalerates on tobacco cut worm, leaf dip, 24 h (Test Example 1). It counts as in vivo. The note with it: for Relative Efficacy: Activity of Fenvalerate (common product) was taken as 100; for LC50: Spodoptera litura, foliar, 24 h, read-out: LC50 (concentration required for 50% death); for LC50 / LC50 (concentration required for 50% death): fourth instar larvae, 24 hours, 20% emulsifiable concentrate diluted; for LC50 (concentration required for 50% death): 1440 min.
Source text: Insecticidal activity of fenvalerates on tobacco cut worm (Spodoptera litura)
Fenvalerate Y obtained in Example 4, fenvalerate Y-rich fenvalerate obtained in Examples 5 and 6 and common fenvalerate were formulated into a 20% emulsifiable concentrate as usual (Composition: above pesticide 20%; xylene 70%; and Sorpol 3005X (a registered trademark of Toho Kagaku Co.) 10%). These emulsifiable concentrates were each diluted with water to a pre-determined concentration, and mixed with a spreader (Shin-Rino, a registered trademark of Nippon Noyaku Co.) of 3,000 times by weight based on the diluted liquor.
as §3, §4

The subject of series [7] is housefly (Musca domestica). The experiment in a line: Insecticidal activity of fenvalerates on housefly, topical application, 24 h (Test Example 2). The settings on record: for Relative Efficacy: Activity of Fenvalerate (common product) was taken as 100; for LD50: CSMA-strain female adults, 0.5 μl to ventral thorax, 24 hours. The class given is in vivo. The method, then: Insecticidal activity of fenvalerates on housefly (Musca domestica)
Each pesticide used in Examples 4 and 5 was diluted with acetone to a pre-determined concentration, and 0.5 μl of the solution was applied to the ventral thorax of CSMA-strain housefly female adults by means of a microsyringe. The adults were then liberated in a plastic cup (diameter 11 cm) wherein a bait (3% sugar water) was placed. The dead and alive were examined after 24 hours, and the values of LD50 were obtained.

Series [8] can be described thus: Solubility, general statement. It counts as physicochemical. The settings on record: compared with fenvalerate Aα.
The conditions of series [9]: reported in literature; cited from earlier work.
Series [10] can be described thus: Insecticidal and acaricidal activity, general statements. It counts as in vivo. The note with it: diastereomers separated by recrystallization from hexane.
Setting [11] is: Parathion = 100, 50% mortality, 18 to 20 hours, * High Knockdown.
[12] abbreviates: Parathion = 100, 50% mortality, 18-20 hours, * High Knockdown.
Where [13] appears, read: fourth instar larvae, 24 hours, emulsifiable concentrate diluted.
[14] abbreviates: Parathion = 100, 50% mortality, 44-46 hours, * High Knockdown.

For the molecule `CC(C)C(C(=O)OC(C#N)c1cccc(Oc2ccccc2)c1)c1ccc(OC(F)F)cc1` (racemic) [Common Difluoromethoxy Ester, α-cyano-3-phenoxybenzyl 2-(4-difluoromethoxyphenyl)isovalerate], the “Toxicity Index” value in [1] (setting [11]) came out at 582; in series [2] (setting [12]) it was 219; in series [4] (setting [14]) it was 773. Further, in [3] (setting [13]), the LC50 turned out to be 23 µg/mL (≈ 50.9 µM).

As for `CCOc1ccc(C(C(=O)OC(C#N)c2cccc(Oc3ccccc3)c2)C(C)C)cc1` (racemic) [Common Ethoxy Ester (racemate), α-cyano-3-phenoxybenzyl 2-(4-ethoxyphenyl)isovalerate], in [5], the LD50 was 0.54 μg/housefly.

`COc1ccc(C(C(=O)OC(C#N)c2cccc(Oc3ccccc3)c2)C(C)C)cc1` (racemic) [Common Methoxy Ester (racemate), α-cyano-3-phenoxybenzyl 2-(4-methoxyphenyl)isovalerate] showed an LD50 in [5] of 0.35 μg/housefly.

For `CC(C)[C@H](C(=O)O[C@H](C#N)c1cccc(Oc2ccccc2)c1)c1ccc(OC(F)F)cc1` (relative stereo) [Difluoromethoxy Ester Y, α-cyano-3-phenoxybenzyl 2-(4-difluoromethoxyphenyl)isovalerate], the LC50 in series [3] (24 h) amounted to 12 µg/mL (≈ 26.6 µM).

For the molecule `CCOc1ccc([C@@H](C(=O)O[C@H](C#N)c2cccc(Oc3ccccc3)c2)C(C)C)cc1` (relative stereo) [Ethoxy Ester Y, α-cyano-3-phenoxybenzyl 2-(4-ethoxyphenyl)isovalerate], the LD50 in series [5] is recorded as 0.28 μg/housefly.

On to `CC(C)[C@H](C(=O)O[C@H](C#N)c1cccc(Oc2ccccc2)c1)c1ccc(Cl)cc1` (relative stereo) [Example 4], for which, in series [6], the “Relative Efficacy” value is 195 and the LC50 was determined as 3.8 µg/mL (≈ 9.05 µM). Also, in series [7], the “Relative Efficacy” value stood at 207 and the LD50 is reported as 0.015 μg/housefly.

The molecule `COc1ccc([C@@H](C(=O)O[C@H](C#N)c2cccc(Oc3ccccc3)c2)C(C)C)cc1` (relative stereo) [Methoxy Ester Y, α-cyano-3-phenoxybenzyl 2-(4-methoxyphenyl)isovalerate] gave an LD50 in series [5] of 0.17 μg/housefly.

As to `CC(C)[C@H](C(=O)O[C@@H](C#N)c1cccc(Oc2ccccc2)c1)c1ccc(OC(F)F)cc1` (relative stereo) [Same, X Isomer Pair, α-cyano-3-phenoxybenzyl 2-(4-difluoromethoxyphenyl)isovalerate], the “Toxicity Index” value in series [1] (setting [11]) is given as 45; in series [2] (setting [12]), 47; in series [4] (setting [14]), 106.

On to `CC(C)[C@H](C(=O)O[C@H](C#N)c1cccc(Oc2ccccc2)c1)c1ccc(OC(F)F)cc1` (relative stereo) [Same, Y Isomer Pair, α-cyano-3-phenoxybenzyl 2-(4-difluoromethoxyphenyl)isovalerate], for which the results for the “Toxicity Index” value in series [1] (in vivo), in series [2] (in vivo) and in series [4] (in vivo) were 1273, 1100 and 1544, respectively.

Consider `CC(C)[C@H](C(=O)O[C@H](C#N)c1cccc(Oc2ccccc2)c1)c1ccc(Cl)cc1` (relative stereo) [fenvalerate Y], for which the solubilities result in series [8] is recorded as “greater than those of fenvalerate Aα”. The “insecticidal and acaricidal activity” value in series [9] is listed as “highly active pesticide”.

For `CC(C)C(C(=O)OC(C#N)c1cccc(Oc2ccccc2)c1)c1ccc(Cl)cc1` (stereo not shown) [Example 5], in series [6], the “Relative Efficacy” value stood at 172 and the LC50 stood at 4.3 µg/mL (≈ 10.2 µM). In [7], the “Relative Efficacy” value was found to be 172 and the LD50 worked out at 0.018 μg/housefly.

As to `CC(C)C(C(=O)OC(C#N)c1cccc(Oc2ccccc2)c1)c1ccc(Cl)cc1` (stereo not shown) [Example 6], in [6], the “Relative Efficacy” value is given as 125 and the “LC50 (concentration required for 50% death)” value is listed as 5.9 ppm.

For `CC(C)C(C(=O)OC(C#N)c1cccc(Oc2ccccc2)c1)c1ccc(Cl)cc1` (stereo not drawn) [Fenvalerate (common product), α-Cyano-3-phenoxybenzyl 2-(4-chlorophenyl)isovalerate, reference compound], in series [6], the “Relative Efficacy” value came to 100 and the “LC50 (concentration required for 50% death)” value worked out at 7.4 ppm. Moreover, in series [7], the “Relative Efficacy” value worked out at 100 and the LD50 was found to be 0.031 μg/housefly.

Take `CC(C)C(C(=O)OC(C#N)c1cccc(Oc2ccccc2)c1)c1ccc(OC(F)F)cc1` (stereo not drawn) [Y-Rich Difluoromethoxy Ester, α-cyano-3-phenoxybenzyl 2-(4-difluoromethoxyphenyl)isovalerate]: the LC50 in [3] (setting [13]) amounted to 14 µg/mL (≈ 31 µM).

`CCOc1ccc(C(C(=O)OC(C#N)c2cccc(Oc3ccccc3)c2)C(C)C)cc1` (stereo not drawn) [Y-Rich Ethoxy Ester, α-cyano-3-phenoxybenzyl 2-(4-ethoxyphenyl)isovalerate] had an LD50 in series [5] of 0.46 μg/housefly.

In the case of `COc1ccc(C(C(=O)OC(C#N)c2cccc(Oc3ccccc3)c2)C(C)C)cc1` (stereo not drawn) [Y-Rich Methoxy Ester, α-cyano-3-phenoxybenzyl 2-(4-methoxyphenyl)isovalerate], in series [5], the LD50 is given as 0.20 μg/housefly.

For the molecule `C#CC(OC(=O)C(c1ccc(Cl)cc1)C(C)C)c1cccc(Oc2ccccc2)c1` (stereo not drawn) [diastereomer (m.p. 51°-52° C.), α-ethynyl-3-phenoxybenzyl 2-(4-chlorophenyl)isovalerate], the insecticidal activity entry in series [10] is reported as “higher insecticidal activity”.

As to `C#CC(OC(=O)C(c1ccc(Cl)cc1)C(C)C)c1cccc(Oc2ccccc2)c1` (stereo not drawn) [diastereomer having a melting point of 87° to 88° C., α-ethynyl-3-phenoxybenzyl 2-(4-chlorophenyl)isovalerate], the insecticidal activity result in series [10] is on record as “very weak insecticidal activity”.

With `CC(C)[C@H](C(=O)O[C@H](C#N)c1cccc(Oc2ccccc2)c1)c1ccc(Cl)cc1` [fenvalerate Aα, (S)-α-cyano-3-phenoxybenzyl (S)-2-(4-substituted-phenyl)isovalerate], in [9], the “insecticidal and acaricidal activity” value is “the most active stereoisomer of the four”.
